How the values were obtained:
GFP-HDAC4 in VSMCs = experiment: GFP-HDAC4 cytoplasmic/nuclear localization in transfected VSMCs (CellProfiler scoring); assay type: cell-based, mouse; details: for cytoplasmic localization of HDAC4: VSMCs transfected with wild type GFP-HDAC4, vehicle 96.8%; for effect on HDAC4 location (nuclear accumulation / shuttling): VSMCs transfected with GFP-HDAC4
Protocol: (§1) Mouse aortic smooth muscle cells were purchased from ATCC (CRL-2797) and grown in DMEM supplemented with 10% FBS. 10 mmol/L beta-glycerophosphate (Sigma-Aldrich) and 0.2 mmol/L 2-Phospho-L-ascorbic acid (Sigma-Aldrich) were added to the growth media for 3-14 days to induce calcification (HPM). All cultured cells were maintained at 37° C. with 5% CO2.
Cell were transfected with pEGFP-HDAC4, pEGFP-HDAC4 3SA, pcDNA HDAC4-flag that were a gift from Tso-Pang Yao (Addgene plasmid #45636, #45637, #30485) [Cohen T. J. et al., The histone deacetylase HDAC4 connects neural activity to muscle transcriptional reprogramming. J Biol Chem 2007, 282, 33752-33759] or pEGFP-HDAC4 3-625 plasmid. Mouse ENIGMA (Pdlim7) or truncation mutants were cloned to pcDNA-3HA backbone plasmid. Transfections were performed using polyjet reagent (signaGen) according to manufacturer's instructions. Hdac4 siRNA (IDT), ENIGMA siRNA (GE Healthcare Life Sciences Dharmacon) LKB1 siRNA (IDT) and Sun2 siRNA (IDT) were transfected to the cells using Stemfect RNA Transfection Kit (Stemgent Inc.) according to manufacturer's instructions.
The pan-SIK, inhibitors: HG-9-91-01 (ApexBio #B1052), WH-4-023 (Sigma-Aldrich), MRT67307 (Sigma-Aldrich) and the pan-PKD and CamK inhibitors: CID-2011756 (Cayman #15317), KN-93 (Sigma-Aldrich K1285), were added to the HPM at final concentrations of 0.5, 1, 2, 5 and 10 μmol/L.
For localization and co-localization assays cell were transfected with pEGFP-HDAC4 plasmids, fixed with 4% formaldehyde in PBS, and blocked in 5% FBS in PBS. Staining for ENIGMA was done with overnight incubation of an antibody recognizing Pdlim7 (ProteinTech #10221-1-AP) in 2% FBS. Cy3-conjugated AffiniPure Donkey Anti-Rabbit IgG secondary antibody (Jackson ImmunoResearch) was used for detection. Nuclei were counterstained with DAPI 1 μg/ml. Cells were imaged using Zeiss Axio observer fluorescent microscope. Cytoplasmic and nuclear localization analysis was performed automatically on acquired images using CellProfiler cell image and analysis software [Carpenter A. E. et al., CellProfiler: image analysis software for identifying and quantifying cell phenotypes. Genome Biol 2006, 7, R100].

VSMCs [1] = experiment: qRT-PCR of osteochondrogenic markers in VSMCs; assay type: cell-based, mouse; details: VSMCs grown 7 days in HPM, 1 μM vs DMSO
Protocol: as §1
RNA was extracted from cultured cell using the NucleoSpin RNA kit (MACH EREY-NAGEL). The RNeasy Fibrous Tissue mini and midi kits (Qiagen) were used to extract RNA from aortic rings and human tissue (respectively). All kits were used in accordance with manufacturer protocol. Reverse transcription was done using iScript reagent (Bio-Rad). Quantitative real-time PCR was performed with iTaq universal SYBR green supermix (Bio-Rad) using Bio-Rad CFX96 real time system. Previous study has shown that Actb was among the most stably expressed genes in differentiating osteoblasts [Stephens A. S, et al., Internal control genes for quantitative RT-PCR expression analysis in mouse osteoblasts, osteoclasts and macrophages. BMC Res Notes 2011, 4, 410], and therefore expression data were normalized to the expression of Actb. For each expression analysis we used at least two different experiments, at least four biological replicates, and two technical replicates for each biological replicates for each gene. We performed a standard curve for each primer pair. […]

VSMCs [2] = experiment: O-cresolphthalein calcium colorimetric assay of VSMCs (matrix calcification); assay type: cell-based, mouse; details: VSMCs in HPM, 14 days, normalized to protein concentration
Protocol: as §1
After 14 days of growth cells were washed in PBS and incubated overnight in 0.6N HCl. HCl was collected and calcium content was measured using o-cresolphthalein Calcium colorimetric assay kit (Sigma-Aldrich) according to manufacture instructions. Calcium concentration was then normalized to cells protein concentration.

aortic rings = experiment: Aortic rings assay in HPM (qRT-PCR of osteochondrogenic markers, Von Kossa stain); assay type: cell-based, mouse; details: aortic rings 14 days in HPM
Protocol: Aortas were either fresh frozen in OCT sliced into section with a cryostat or fixed in 4% formaldehyde, embedded in paraffin and cut into thin sections. Slides were stained to detect calcium depositions with Alizarin red or Von Kossa stains. Alizarin red: slides were incubated in 2% alizarin red (Sigma-Aldrich) for 5 minutes at room temperature, excess stain was washed in DDW. Von Kossa: slides were incubated for 20 minutes in 5% silver nitrate (Sigma-Aldrich), washed twice in DDW, immersed in 0.5% hydroquinone (Sigma-Aldrich) for 2 minutes followed by 2 minutes of 5% sodium thiosulfate (Alfa Aesar).
Aortic rings were prepared as described [Nature protocols, Use of the mouse aortic ring assay to study angiogenesis.—PubMed—NCBI, Last updated January 2012, Accessed on January 2012]. In brief, adult C57BL/6 mice were euthanized with isoflurane; thoracic aorta was dissected, cleaned under a microscope and cut into rings. […]
RNA was extracted from cultured cell using the NucleoSpin RNA kit (MACH EREY-NAGEL). […] Quantitative real-time PCR was performed with iTaq universal SYBR green supermix (Bio-Rad) using Bio-Rad CFX96 real time system. Previous study has shown that Actb was among the most stably expressed genes in differentiating osteoblasts [Stephens A. S, et al., Internal control genes for quantitative RT-PCR expression analysis in mouse osteoblasts, osteoclasts and macrophages. […]

aortic calcification = experiment: Vitamin D3 induced aortic calcification in ApoE-/- mice (Von Kossa, Alizarin red); assay type: in vivo, mouse; details: vitamin D3 overload, 5 mg/Kg/day IP then osmotic pump
Protocol: ApoE^−/− mice were purchased from The Jackson Laboratory. All animals were housed in a temperature-controlled environment with 12 hours light/dark cycles with food and water available ad libitum. Mice were aged 8 weeks when entering the study. Aortic calcification was induced via vitamin D3 overload as previously described [Idelevich A, Rais Y, Monsonego-Ornan E (2011) Bone Gla Protein Increases HIF-1-Dependent Glucose Metabolism and Induces Cartilage and Vascular Calcification. Arterioscler Thromb Vasc Biol 31: e55-e71]. 1α,25-Dihydroxyvitamin D3 (Sigma-Aldrich) was dissolved in 100% ethanol and diluted freshly. Mice received IP injections of 1α,25-Dihydroxyvitamin D3 for six consecutive days at a final concentration of 5 μg/Kg in 5% ethanol. SIK inhibition was achieved by daily administration of HG-9-91-01 (ApexBio #B1052) in DMSO at a final concentration of 5 mg/Kg/day. Littermate ApoE−/− mice were arbitrarily divided to receive treatment or control. In the first 4 days HG-9-91-01 was injected IP and on day 5 osmotic pumps (Alzet model 1002) were implanted. Animals were monitored daily and terminated for study at day 18. Specifically, mice were sacrificed in isoflurane and aortas were collected for histology. All mice procedures were performed in accordance with institutional guidelines. […]

hepatocytes = details: cited from earlier work
bone mass = details: once daily treatment; cited from earlier work

Compound | cytoplasmic localization of HDAC4 (GFP-HDAC4 in VSMCs; 10 μmol/L) | effect on HDAC4 location (nuclear accumulation / shuttling) (GFP-HDAC4 in VSMCs) | further results
O=C(Nc1ccc(CN2CCOCC2)cc1)c1ccc(-c2cccc(Cl)c2)o1 [CID 2011756] | 99.6% | did not significantly affect the location of HDAC4 | 
COc1ccc(N(C(=O)Nc2c(C)cccc2C)c2cc(Nc3ccc(N4CCN(C)CC4)cc3)ncn2)c(OC)c1 [HG-9-91-01] | 14.4% | induced nuclear import of HDAC4 in a dose dependent manner | cytoplasmic localization of HDAC4 (GFP-HDAC4 in VSMCs; 0.5 μmol/L): 97.4%; cytoplasmic localization of HDAC4 (GFP-HDAC4 in VSMCs; 2 μmol/L): 75.7%; upregulation of the osteochondrogenic genes (VSMCs [1]): blunted the upregulation of the osteochondrogenic genes; matrix calcification (matrix calcium) (VSMCs [2]): blunted; matrix calcification (Von Kossa stain) (aortic rings): blunted; upregulation of the osteochondrogenic genes (aortic rings; 1 μM vs DMSO): blunted; development of aortic medial calcifications (aortic calcification): markedly blunted the development of these calcifications; gluconeogenic gene expression and glucose production (hepatocytes): enhanced gluconeogenic gene expression and glucose production in hepatocytes
COc1ccc(S(=O)(=O)N(CCO)c2ccccc2CN(C)C/C=C/c2ccc(Cl)cc2)cc1 [KN-93] | 91.6% | did not significantly affect the location of HDAC4 | 
CCC(=C/[C@H](C)C/C=C/C(C)=C/[C@@H](C)C(=O)[C@@H](C)[C@H](O)[C@@H](C)C/C(C)=C/C(=O)O)/C=C/[C@@H]1OC(=O)C=C[C@@H]1C [Leptomycin B, leptomycin B] |  | induced nuclear accumulation of GFP-HDAC4 | 
O=C(NCCCNc1nc(Nc2cccc(CN3CCOCC3)c2)ncc1C1CC1)C1CCC1 [MRT67307] |  | induced the shuttling of HDAC4 to the nucleus | 
COc1ccc(N(C(=O)Oc2c(C)cccc2C)c2ccnc(Nc3ccc(N4CCN(C)CC4)cc3)n2)c(OC)c1 [WH-4-023] |  | induced the shuttling of HDAC4 to the nucleus | 
COc1ccc(N2C(=O)N(c3c(C)cccc3Cl)Cc3cnc(Nc4ccc(C5CCN(C)CC5)cc4OC)nc32)nc1 [YKL-05-099] |  |  | skeletal effects / bone mass (bone mass): mimic skeletal effects of PTH and increase bone mass
